The values below come from article PMC3056768, “Conjugation to the Cell-Penetrating Peptide TAT Potentiates the Photodynamic Effect of Carboxytetramethylrhodamine” (PLoS ONE, 2011).

This test relates to HeLa cells. As to the kind of experiment: Photosensitization of extracellular peptide at 4°C (endocytosis blocked). The test is classed as cell-based, human. The following applies: 3 µM, 4°C to block endocytosis, irradiated at 560 nm with compound still in the media. As for the experimental part:
HeLa (human cervical adenocarcinoma), COS-7 (SV40 transformed African green monkey kidney fibroblast-like cell line) were obtained from ATCC. COLO 316 (human ovarian carcinoma) were obtained from Robert Burghardt (Department of Veterinary Integrative Biosciences, Texas A&M University). Cells were cultured in DMEM supplemented with 10% fetal bovine serum (FBS) and maintained at 37°C in a humidified environment with 5% CO2. Cells were plated in 8-well dishes so that the cells were 70% confluent after 24 h, washed 3 times with L-15 media, incubated with 3 to 10 µM peptides at 37°C for 1 h, washed 3 times with L-15, and imaged. Alternatively, cells were incubated in L-15 at 4°C to inhibit the endocytic uptake of peptides. In this case, cells were imaged with the peptide still present in solution and the low temperature was maintained for the entire duration of imaging. For photosensitization, cells were exposed to light (λex = 560±20 nm) for the indicated time points. Plasma membrane disruption was detected by addition of the cell-impermeable DNA stain SYTOX Blue (5 µM) during or after photosensitization.
It is therefore possible that the endosomal release observed in the experiments of Figure 1 might be necessary to cause cell death. To investigate whether this is the case, we examined if light-induced cell-death could be observed when the peptides were only localized at the plasma membrane of cells. For these experiments, HeLa cells were first incubated with the peptides (3 µM) at 4°C to block endocytosis. Cells were then irradiated with the peptides still present in the media (the peptide is not retained at the plasma membrane when cells are washed). […] Cells were then washed and observed by fluorescence imaging. […] On the other hand, the membrane damage and cell death obtained after TMR-TAT photosensitization were also observed when hematoporphyrin (HP) or hematoporphyrin derivative (HPD) were used (Fig. 4B). […]

As to `CN(C)c1ccc2c(c1)Oc1cc(N(C)C)ccc1C21OC(=O)c2cc(C(=O)NCC(=O)N[C@@H](CCCNC(=N)N)C(=O)N[C@@H](CCCCN)C(=O)N[C@@H](CCCCN)C(=O)N[C@@H](CCCNC(=N)N)C(=O)N[C@@H](CCCNC(=N)N)C(=O)N[C@@H](CCC(N)=O)C(=O)N[C@@H](CCCNC(=N)N)C(=O)N[C@@H](CCCNC(=N)N)C(=O)N[C@@H](CCCNC(=N)N)C(=O)NCC(N)=O)ccc21` [TMR-TAT], the “light-induced cell death with peptide only extracellular” value was “dramatic cytoplasmic extrusion, membrane blebbing, shrinkage and cell death”.
